Measurements published in patent US20250049035A1, “MICROBIOCIDAL BICYCLE HETEROCYCLIC DERIVATIVES” (SYNGENTA CROP PROTECTION AG, priority 2021, published 2025).

Legend:
Pyrenophora teres = Pyrenophora teres / barley / leaf disc preventative (net blotch); assay type: in vivo; conditions: foliar, barley leaf segments cv. Hasso, inoculated 2 days after application, assessed 5-7 days after application, compared to untreated control
Method: Example B12: Pyrenophora teres/Barley/Leaf Disc Preventative (Net Blotch) Barley leaf segments cv. Hasso are placed on agar in a multiwell plate (24-well format) and sprayed with the formulated test compound diluted in water. The leaf segments are inoculated with a spore suspension of the fungus 2 days after application. The inoculated leaf segments are incubated at 20° C. and 65% relative humidity under a light regime of 12 h light/12 h darkness in a climate cabinet and the activity of a compound is assessed as disease control compared to untreated when an appropriate level of disease damage appears in untreated check leaf segments (5-7 days after application).

Alternaria solani = Alternaria solani / tomato / leaf disc (early blight); assay type: in vivo; conditions: foliar, tomato leaf disks cv. Baby, inoculated 2 days after application, assessed 5-7 days after application, compared to untreated control
Method: Example B1: Alternaria solani/Tomato/Leaf Disc (Early Blight) Tomato leaf disks cv. Baby are placed on agar in multiwell plates (24-well format) and sprayed with the formulated test compound diluted in water. The leaf disks are inoculated with a spore suspension of the fungus 2 days after application. The inoculated leaf disks are incubated at 23° C./21° C.

[1] = test system: Mycosphaerella graminicola (Septoria tritici); experiment: Mycosphaerella graminicola (Septoria tritici) / liquid culture (Septoria blotch); assay type: cell-based; conditions: Zymoseptoria tritici, liquid culture (potato dextrose broth), growth inhibition photometrically 4-5 days after application, compared to untreated control
Method: (§1) Example B15: Mycosphaerella graminicola (Septoria tritici/Liquid Culture (Septoria Blotch) Conidia of the fungus from cryogenic storage are directly mixed into a nutrient broth (potato dextrose broth). After placing a DMSO solution of test compound into a microtiter plate (96-well format), the nutrient broth containing the fungal spores is added. The test plates are incubated at 24° C. and the inhibition of growth is determined photometrically 4-5 days after application.

[2] = test system: Mycosphaerella arachidis (Cercospora arachidicola); experiment: Mycosphaerella arachidis (Cercospora arachidicola) / liquid culture (early leaf spot); assay type: cell-based; conditions: liquid culture (potato dextrose broth), growth inhibition photometrically 4-5 days after application, compared to untreated control
Method: as §1, with “B10:” for “B15:”, “arachidis (Cercospora arachidicola)/Liquid” for “graminicola (Septoria tritici/Liquid”, “(Early Leaf Spot)” for “(Septoria Blotch)”, “broth)” for “broth).”

[3] = test system: Botryotinia fuckeliana (Botrytis cinerea); experiment: Botryotinia fuckeliana (Botrytis cinerea) / liquid culture (gray mould); assay type: cell-based; conditions: liquid culture (Vogels broth), growth inhibition photometrically 3-4 days after application, compared to untreated control
Method: as §1, with “B2: Botryotinia fuckeliana (Botrytis cinerea)/Liquid” for “B15: Mycosphaerella graminicola (Septoria tritici/Liquid”, “(Gray Mould)” for “(Septoria Blotch)”, “(Vogels” for “(potato dextrose”, “3-4” for “4-5”

Fusarium culmorum = experiment: microbe, parasite or virus in culture; assay type: cell-based; conditions: read-out: control of Fusarium culmorum
[4] = test system: Glomerella lagenarium (Colletotrichum lagenarium); experiment: Glomerella lagenarium (Colletotrichum lagenarium) / liquid culture (anthracnose); assay type: cell-based; conditions: Colletotrichum orbiculare, liquid culture (potato dextrose broth), growth inhibition photometrically 3-4 days after application, compared to untreated control
Method: as §1, with “B3: Glomerella lagenarium (Colletotrichum lagenarium)/Liquid” for “B15: Mycosphaerella graminicola (Septoria tritici/Liquid”, “(Anthracnose)” for “(Septoria Blotch)”, “measured” for “determined”, “3-4” for “4-5”

[5] = test system: Phaeosphaeria nodorum (Septoria nodorum); experiment: Phaeosphaeria nodorum (Septoria nodorum) / wheat / leaf disc preventative (glume blotch); assay type: in vivo; conditions: Parastagonospora nodorum, foliar, wheat leaf segments cv. Kanzler, inoculated 2 days after application, assessed 5-7 days after application, compared to untreated control
Method: Example B8: Phaeosphaeria Nodorum (Septoria nodorum)/Wheat/Leaf Disc Preventative (Glume Blotch) Wheat leaf segments cv. Kanzler are placed on agar in a multiwell plate (24-well format) and sprayed with the formulated test compound diluted in water. The leaf disks are inoculated with a spore suspension of the fungus 2 days after application. The inoculated test leaf disks are incubated at 20° C. and 75% relative humidity under a light regime of 12 h light/12 h darkness in a climate cabinet and the activity of a compound is assessed as percent disease control compared to untreated when an appropriate level of disease damage appears in untreated check leaf disks (5-7 days after application).

Sclerotinia sclerotiorum = Sclerotinia sclerotiorum / liquid culture (cottony rot); assay type: cell-based; conditions: liquid culture (potato dextrose broth), growth inhibition photometrically 3-4 days after application, compared to untreated control
Method: Example B14: Sclerotinia sclerotiorum/Liquid Culture (Cottony Rot) Mycelia fragments of a newly grown liquid culture of the fungus are directly mixed into a nutrient broth (potato dextrose broth). After placing a DMSO solution of test compound into a microtiter plate (96-well format) the nutrient broth containing the fungal material is added. The test plates are incubated at 24° C. and the inhibition of growth is determined photometrically 3-4 days after application.

[6] = test system: Blumeria graminis f. sp. tritici (Erysiphe graminis f. sp. tritici); experiment: Blumeria graminis f. sp. tritici / wheat / leaf disc preventative (powdery mildew); assay type: in vivo; conditions: foliar, wheat leaf segments cv. Kanzler, inoculated 1 day after application, assessed 6-8 days after application, compared to untreated control
Method: Example B4: Blumeria graminis f. sp. tritici (Erysiphe graminis f. sp. tritici)/Wheat/Leaf Disc Preventative (Powdery Mildew on Wheat) Wheat leaf segments cv. Kanzler are placed on agar in a multiwell plate (24-well format) and sprayed with the formulated test compound diluted in water. The leaf disks are inoculated by shaking powdery mildew infected plants above the test plates 1 day after application. The inoculated leaf disks are incubated at 20° C. and 60% relative humidity under a light regime of 24 h darkness followed by 12 h light/12 h darkness in a climate chamber and the activity of a compound is assessed as percent disease control compared to untreated when an appropriate level of disease damage appears on untreated check leaf segments (6-8 days after application).

[7] = test system: Monographella nivalis (Microdochium nivale); experiment: Monographella nivalis (Microdochium nivale) / liquid culture (foot rot cereals); assay type: cell-based; conditions: liquid culture (potato dextrose broth), growth inhibition photometrically 4-5 days after application, compared to untreated control
Method: as §1, with “B9: Monographella nivalis (Microdochium nivale)/Liquid” for “B15: Mycosphaerella graminicola (Septoria tritici/Liquid”, “(Foot Rot Cereals)” for “(Septoria Blotch)”

C[C@H]1c2sccc2[C@@H](c2cnn(C)c2)CN1C(=O)c1cc(-c2ccc(F)cc2F)on1 (racemic) [Compound P-14, [5-(2,4-difluorophenyl)isoxazol-3-yl]-[rac-(4R,7S)-7-methyl-4-(1-methylpyrazol-4-yl)-5,7-dihydro-4H-thieno[2,3-c]pyridin-6-yl]methanone]
≥ 80%: pest or weed control at 200 ppm (Pyrenophora teres) | pest or weed control at 200 ppm (Alternaria solani) | inhibition of growth at 20 ppm [1] | inhibition of growth at 20 ppm [2] | inhibition of growth at 20 ppm [3] | inhibition of growth at 20 ppm (Fusarium culmorum) | inhibition of growth at 20 ppm [4] | pest or weed control at 200 ppm [5] | inhibition of growth at 20 ppm (Sclerotinia sclerotiorum) | pest or weed control at 200 ppm [6]

C[C@H]1c2sccc2[C@@H](c2cnn(C)c2)CN1C(=O)c1nnc(-c2ccc(F)cc2F)s1 (racemic) [Compound P-15, [5-(2,4-difluorophenyl)-1,3,4-thiadiazol-2-yl]-[rac-(4R,7S)-7-methyl-4-(1-methylpyrazol-4-yl)-5,7-dihydro-4H-thieno[2,3-c]pyridin-6-yl]methanone]
≥ 80%: pest or weed control at 200 ppm (Pyrenophora teres) | pest or weed control at 200 ppm (Alternaria solani) | inhibition of growth at 20 ppm [1] | inhibition of growth at 20 ppm [2] | inhibition of growth at 20 ppm [3] | inhibition of growth at 20 ppm (Fusarium culmorum) | inhibition of growth at 20 ppm [4] | pest or weed control at 200 ppm [5] | pest or weed control at 200 ppm [6]

C[C@H]1c2sccc2[C@@H](c2cnn(C)c2)CN1C(=O)c1nnc(-c2ccc(F)cc2F)s1 [Compound P-2, [5-(2,4-difluorophenyl)-1,3,4-thiadiazol-2-yl]-[(4R,7S)-7-methyl-4-(1-methylpyrazol-4-yl)-5,7-dihydro-4H-thieno[2,3-c]pyridin-6-yl]methanone]
≥ 80%: pest or weed control at 200 ppm (Pyrenophora teres) | pest or weed control at 200 ppm (Alternaria solani) | inhibition of growth at 20 ppm [1] | inhibition of growth at 20 ppm [2] | inhibition of growth at 20 ppm [3] | inhibition of growth at 20 ppm [7] | inhibition of growth at 20 ppm (Fusarium culmorum) | inhibition of growth at 20 ppm [4] | pest or weed control at 200 ppm [5] | inhibition of growth at 20 ppm (Sclerotinia sclerotiorum) | pest or weed control at 200 ppm [6]

Cc1c([C@H]2CN(C(=O)c3cc(-c4ccc(F)cc4F)on3)Cc3ccsc32)cnn1C [Compound P-3, [5-(2,4-difluorophenyl)isoxazol-3-yl]-[(7S)-7-(1,5-dimethylpyrazol-4-yl)-6,7-dihydro-4H-thieno[3,2-c]pyridin-5-yl]methanone]
≥ 80%: pest or weed control at 200 ppm (Pyrenophora teres) | pest or weed control at 200 ppm (Alternaria solani) | inhibition of growth at 20 ppm [1] | inhibition of growth at 20 ppm [3] | inhibition of growth at 20 ppm [7] | inhibition of growth at 20 ppm (Fusarium culmorum) | inhibition of growth at 20 ppm [4] | pest or weed control at 200 ppm [5] | inhibition of growth at 20 ppm (Sclerotinia sclerotiorum) | pest or weed control at 200 ppm [6]

Cc1c(C2CN(C(=O)c3nnc(-c4ccc(F)cc4F)s3)Cc3ccsc32)cnn1C (stereo not drawn) [Compound P-7, [5-(2,4-difluorophenyl)-1,3,4-thiadiazol-2-yl]-[7-(1,5-dimethylpyrazol-4-yl)-6,7-dihydro-4H-thieno[3,2-c]pyridin-5-yl]methanone]
≥ 80%: inhibition of growth at 20 ppm [1] | inhibition of growth at 20 ppm [2] | inhibition of growth at 20 ppm [3] | inhibition of growth at 20 ppm [7] | inhibition of growth at 20 ppm (Fusarium culmorum) | inhibition of growth at 20 ppm [4] | inhibition of growth at 20 ppm (Sclerotinia sclerotiorum) | pest or weed control at 200 ppm [6]

Cn1cc(C2(C)CN(C(=O)c3nnc(-c4ccc(F)cc4F)s3)Cc3sccc32)cn1 (stereo not drawn) [Compound P-18, methylpyrazol-4-yl)-5,7-[5-(2,4-difluorophenyl)-1,3,4-thiadiazol-2-yl]-[4-methyl-4-(1-dihydrothieno[2,3-c]pyridin-6-yl]methanone]
≥ 80%: pest or weed control at 200 ppm (Pyrenophora teres) | pest or weed control at 200 ppm (Alternaria solani) | inhibition of growth at 20 ppm [1] | inhibition of growth at 20 ppm [2] | inhibition of growth at 20 ppm [3] | inhibition of growth at 20 ppm (Fusarium culmorum) | inhibition of growth at 20 ppm [4] | pest or weed control at 200 ppm [5] | inhibition of growth at 20 ppm (Sclerotinia sclerotiorum) | pest or weed control at 200 ppm [6]

Cc1c(C2CN(C(=O)c3nnc(-c4ccc(F)cc4F)s3)Cc3sccc32)cnn1C (stereo not drawn) [Compound P-25, [5-(2,4-difluorophenyl)-1,3,4-thiadiazol-2-yl]-[4-(1,5-dimethylpyrazol-4-yl)-5,7-dihydro-4H-thieno[2,3-c]pyridin-6-yl]methanone]
≥ 80%: pest or weed control at 200 ppm (Pyrenophora teres) | pest or weed control at 200 ppm (Alternaria solani) | inhibition of growth at 20 ppm [1] | inhibition of growth at 20 ppm [3] | inhibition of growth at 20 ppm [7] | inhibition of growth at 20 ppm (Fusarium culmorum) | inhibition of growth at 20 ppm [4] | pest or weed control at 200 ppm [5] | inhibition of growth at 20 ppm (Sclerotinia sclerotiorum) | pest or weed control at 200 ppm [6]

Cc1c(C2CN(C(=O)c3cc(-c4ccccc4F)on3)Cc3ccsc32)cnn1C (stereo not drawn) [Compound P-34, [7-(1,5-dimethylpyrazol-4-yl)-6,7-dihydro-4H-thieno[3,2-c]pyridin-5-yl]-[5-(2-fluorophenyl)isoxazol-3-yl]methanone]
≥ 80%: pest or weed control at 200 ppm (Pyrenophora teres) | pest or weed control at 200 ppm (Alternaria solani) | inhibition of growth at 20 ppm [1] | inhibition of growth at 20 ppm [2] | inhibition of growth at 20 ppm [3] | inhibition of growth at 20 ppm [7] | inhibition of growth at 20 ppm (Fusarium culmorum) | inhibition of growth at 20 ppm [4] | pest or weed control at 200 ppm [5] | inhibition of growth at 20 ppm (Sclerotinia sclerotiorum)
